The results in this text go back to ChEMBL document CHEMBL1201862, “PubChem BioAssay data set” (2004).

Broadly, the EC50 is the midpoint of the concentration-response curve. The term IC50 denotes the concentration that inhibits the measured activity by half. In general, CC50 refers to the concentration that lowers cell viability or growth by half. For orientation: AC50 means the concentration at which the activity in the assay is half-maximal.

The target of assay [1] is Transthyretin (Homo sapiens, UniProt P02766). The experiment in a line: Luminescence-based cell-based high throughput dose response assay to identify activators of Transthyretin (TTR) transcription. The format is functional.
For assay [2], the target named is T1, RNA-binding protein pos-1 (Caenorhabditis elegans, UniProt G5EF15).
T1 sequence (G5EF15 whole entry): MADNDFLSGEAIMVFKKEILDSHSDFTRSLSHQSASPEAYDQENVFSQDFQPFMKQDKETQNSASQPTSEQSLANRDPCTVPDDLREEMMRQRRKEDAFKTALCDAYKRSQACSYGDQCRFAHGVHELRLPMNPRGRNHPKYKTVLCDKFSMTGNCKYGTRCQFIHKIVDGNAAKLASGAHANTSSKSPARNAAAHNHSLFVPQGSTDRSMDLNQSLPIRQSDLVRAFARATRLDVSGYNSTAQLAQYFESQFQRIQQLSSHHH
Nature of the assay: disruptors of C. elegans POS-1 RNA interaction – biochemical, fluorescence polarization, dose response (AID 1964).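 Further: purified POS-1 fused to maltose binding protein made in E. coli; potency of compounds blocking POS-1 binding to fluorescent RNA.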 A general note: In fluorescence polarisation assays a small probe gives low polarisation when free and higher when bound to something large.

Assay [3] has as its target Induced myeloid leukemia cell differentiation protein Mcl-1 (Homo sapiens, UniProt Q07820). The format is functional.
Assay [4] deals with Genome polyprotein (dengue virus type 2, UniProt P29990). Nature of the assay: flavivirus cap methylation enzyme inhibition – biochemical, confirmation dose response, primary screen (AID 588689). The format is functional.
Assay [5] has as its system Vero. The experiment in a line: viability of Vero cells under compound – cytotoxicity control for flavivirus capping enzyme inhibitors (AID 588742). The format is functional. Particulars: Chlorocebus sabaeus.
For assay [6], the target named is T2, Zinc finger protein mex-5 (Caenorhabditis elegans, UniProt Q9XUB2).
T2 sequence (Q9XUB2 whole entry): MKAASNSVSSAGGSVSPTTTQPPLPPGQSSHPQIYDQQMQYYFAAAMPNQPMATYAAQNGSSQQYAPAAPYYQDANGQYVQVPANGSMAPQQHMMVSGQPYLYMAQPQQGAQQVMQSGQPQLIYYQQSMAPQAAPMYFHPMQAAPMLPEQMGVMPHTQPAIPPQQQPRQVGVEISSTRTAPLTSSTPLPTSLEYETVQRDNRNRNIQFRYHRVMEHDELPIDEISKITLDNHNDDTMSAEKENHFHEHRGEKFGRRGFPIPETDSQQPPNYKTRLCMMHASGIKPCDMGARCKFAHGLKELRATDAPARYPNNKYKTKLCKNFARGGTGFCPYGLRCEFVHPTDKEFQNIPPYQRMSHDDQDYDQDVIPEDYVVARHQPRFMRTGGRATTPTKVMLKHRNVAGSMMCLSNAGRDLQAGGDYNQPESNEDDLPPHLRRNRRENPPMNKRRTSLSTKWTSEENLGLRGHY
Nature of the assay: potency of MEX-5 RNA-binding blockers – biochemical, C. elegans, fluorescence polarization, dose response (AID 1960).

For assay [7], the target named is T3, Caspase-6 (Homo sapiens, UniProt P55212).
T3 sequence (P55212 whole entry): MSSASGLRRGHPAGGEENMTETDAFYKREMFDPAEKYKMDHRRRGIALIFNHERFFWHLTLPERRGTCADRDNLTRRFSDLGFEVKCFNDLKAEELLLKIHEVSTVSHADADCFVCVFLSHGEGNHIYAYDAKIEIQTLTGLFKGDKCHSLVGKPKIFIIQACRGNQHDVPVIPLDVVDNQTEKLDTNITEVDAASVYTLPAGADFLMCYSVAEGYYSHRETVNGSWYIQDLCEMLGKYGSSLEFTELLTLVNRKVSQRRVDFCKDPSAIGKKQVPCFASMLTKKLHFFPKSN
Nature of the assay: inhibition of CASP6 peptide cleavage – biochemical, VEID-R110 fluorescence, cherry-pick, dose response (AID 720632).

Assay [8] deals with Bifunctional protein GlmU (Mycobacterium tuberculosis, UniProt P9WMN3). Nature of the assay: Inhibitors of Mycobacterial Glucosamine-1-phosphate acetyl transferase (GlmU). Secondary screen. Also on record: species or system Mycobacterium tuberculosis H37Rv.
A short description of assay [9]: viability loss in HepG2 liver cells – cell-based, ATP luminescence, cherry-pick, set 6, cytotoxicity control, dose response (AID 1053125). The format is functional.
The nature of assay [10]: HIV-1 Vif–A3G interaction blockers – biochemical, TR-FRET, GST-Vif 1-94, biotin-A3G peptide, dose response retest, primary screen (AID 1117319).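 Further: TR-FRET signal of purified GST-Vif binding a biotinylated A3G peptide; inhibitors lower the FRET signal by blocking Vif and A3G binding.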 The format is functional. (In general: TR-FRET usually uses a lanthanide donor and a delayed reading to cut background.)
The target in assay [11] is Prothrombin (Homo sapiens, UniProt P00734). Nature of the assay: Thrombin 1536 HTS Dose Response Confirmation. [Related pubchem assays: 1046 (Thrombin 1536 HTS; hits were confirmed in this assay)]. The format is functional.
Assay [12] can be described thus: viability loss in human Jurkat cells – cell-based, luminescence, cytotoxicity control for P. falciparum gametocyte viability project, dose response (AID 1117277).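 Further: potency reflects loss of cellular ATP meaning fewer viable cells.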 The format is functional.
Assay [13] in a line: viability inhibitors of stage V gametocytes – luminescence, dose response (AID 1117278).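 Further: gametocytes exposed to compound for 24 hours.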 The format is functional, cell-based.
Assay [14] has as its target E3 ubiquitin-protein ligase Mdm2 (Homo sapiens, UniProt Q00987). The experiment in a line: MDM2-luc reporter signal enhancers, multi-concentration potency testing, MDM2 ubiquitin-protein ligase inhibitor program, whole-cell format, luminescence detection, 384-well microplate (AID 1394).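 Further: MDM2 E3 inhibitors raise luminescence so EC50 is for signal enhancement.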 The format is functional.
The nature of assay [15]: viability loss in Vero cells – cytotoxicity control for Vif-APOBEC3G degradation inhibitor project, dose response (AID 1117358). Conditions: Vero. The format is functional.
A short description of assay [16]: A549 lung cell viability reduction – CellTiter-Glo luminescence, cherry-pick, cytotoxicity control, dose response (AID 743484). The format is functional, cell-based. On the technique in general: In ATP-based viability assays light output follows the ATP content of the culture.
Assay [17] addresses Oxysterols receptor LXR-beta (Homo sapiens, UniProt P55055). The format is functional, cell-based.
A short description of assay [18]: cells.

The structures appear in SMILES notation. Active and inactive are the calls of the source.

Sequence of Bifunctional protein GlmU (P9WMN3 whole entry): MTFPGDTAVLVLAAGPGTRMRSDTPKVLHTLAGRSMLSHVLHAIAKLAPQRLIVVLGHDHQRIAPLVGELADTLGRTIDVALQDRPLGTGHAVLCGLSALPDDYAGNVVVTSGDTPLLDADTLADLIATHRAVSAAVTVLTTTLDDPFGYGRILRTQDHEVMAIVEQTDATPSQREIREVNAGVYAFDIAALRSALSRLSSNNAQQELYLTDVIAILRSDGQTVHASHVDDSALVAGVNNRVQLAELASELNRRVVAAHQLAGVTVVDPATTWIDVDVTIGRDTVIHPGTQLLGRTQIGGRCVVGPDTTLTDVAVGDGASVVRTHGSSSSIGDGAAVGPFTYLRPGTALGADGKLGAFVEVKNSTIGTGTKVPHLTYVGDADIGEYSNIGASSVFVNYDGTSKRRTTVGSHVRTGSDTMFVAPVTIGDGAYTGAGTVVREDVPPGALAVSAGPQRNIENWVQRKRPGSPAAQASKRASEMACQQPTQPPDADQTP
Sequence of Oxysterols receptor LXR-beta (P55055 whole entry): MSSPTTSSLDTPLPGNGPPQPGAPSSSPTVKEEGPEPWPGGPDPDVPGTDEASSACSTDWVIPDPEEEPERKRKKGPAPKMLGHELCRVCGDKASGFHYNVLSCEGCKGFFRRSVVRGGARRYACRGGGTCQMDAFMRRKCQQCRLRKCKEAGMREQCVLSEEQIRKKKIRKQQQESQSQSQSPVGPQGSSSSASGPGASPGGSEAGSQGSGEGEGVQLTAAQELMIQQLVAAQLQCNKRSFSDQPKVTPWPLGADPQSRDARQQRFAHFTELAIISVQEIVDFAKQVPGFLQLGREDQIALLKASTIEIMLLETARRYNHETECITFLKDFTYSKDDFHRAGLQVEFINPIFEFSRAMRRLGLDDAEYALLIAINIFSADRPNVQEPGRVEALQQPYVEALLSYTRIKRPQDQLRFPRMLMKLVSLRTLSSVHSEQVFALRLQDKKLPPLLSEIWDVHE
Sequence of Induced myeloid leukemia cell differentiation protein Mcl-1 (Q07820 whole entry): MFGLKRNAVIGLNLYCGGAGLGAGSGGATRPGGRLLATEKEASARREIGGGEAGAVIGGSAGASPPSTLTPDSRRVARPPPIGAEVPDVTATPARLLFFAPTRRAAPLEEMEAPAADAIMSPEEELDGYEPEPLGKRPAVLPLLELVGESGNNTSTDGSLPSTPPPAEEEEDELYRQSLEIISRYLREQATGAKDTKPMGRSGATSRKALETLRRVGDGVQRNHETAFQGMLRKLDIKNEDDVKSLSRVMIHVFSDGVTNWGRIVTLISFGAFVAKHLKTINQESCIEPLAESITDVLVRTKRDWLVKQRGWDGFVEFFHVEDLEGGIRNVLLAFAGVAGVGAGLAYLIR
Sequence of Genome polyprotein (P29990 2492-3391 limits assumed): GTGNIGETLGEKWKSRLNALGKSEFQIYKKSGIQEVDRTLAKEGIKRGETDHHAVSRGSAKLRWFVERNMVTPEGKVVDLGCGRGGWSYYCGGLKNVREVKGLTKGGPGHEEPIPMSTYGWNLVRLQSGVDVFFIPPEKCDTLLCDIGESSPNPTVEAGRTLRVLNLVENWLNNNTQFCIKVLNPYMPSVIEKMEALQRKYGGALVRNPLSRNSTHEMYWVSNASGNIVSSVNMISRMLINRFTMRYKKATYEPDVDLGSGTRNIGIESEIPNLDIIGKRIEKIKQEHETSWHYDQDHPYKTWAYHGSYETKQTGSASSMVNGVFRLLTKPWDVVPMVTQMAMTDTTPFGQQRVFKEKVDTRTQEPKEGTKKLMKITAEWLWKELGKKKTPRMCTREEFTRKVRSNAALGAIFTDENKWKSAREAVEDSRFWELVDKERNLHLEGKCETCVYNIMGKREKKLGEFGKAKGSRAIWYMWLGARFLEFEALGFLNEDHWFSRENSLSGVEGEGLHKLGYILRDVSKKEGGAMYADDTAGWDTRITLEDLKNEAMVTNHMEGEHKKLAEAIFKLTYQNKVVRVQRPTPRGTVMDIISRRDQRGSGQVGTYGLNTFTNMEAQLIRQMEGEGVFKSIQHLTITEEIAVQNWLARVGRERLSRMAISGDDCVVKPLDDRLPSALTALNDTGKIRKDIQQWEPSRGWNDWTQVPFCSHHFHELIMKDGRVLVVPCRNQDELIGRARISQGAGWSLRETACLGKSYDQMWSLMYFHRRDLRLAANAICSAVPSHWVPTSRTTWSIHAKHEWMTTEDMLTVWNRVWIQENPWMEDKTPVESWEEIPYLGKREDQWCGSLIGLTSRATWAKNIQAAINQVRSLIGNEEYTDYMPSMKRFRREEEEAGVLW
Sequence of E3 ubiquitin-protein ligase Mdm2 (Q00987 whole entry): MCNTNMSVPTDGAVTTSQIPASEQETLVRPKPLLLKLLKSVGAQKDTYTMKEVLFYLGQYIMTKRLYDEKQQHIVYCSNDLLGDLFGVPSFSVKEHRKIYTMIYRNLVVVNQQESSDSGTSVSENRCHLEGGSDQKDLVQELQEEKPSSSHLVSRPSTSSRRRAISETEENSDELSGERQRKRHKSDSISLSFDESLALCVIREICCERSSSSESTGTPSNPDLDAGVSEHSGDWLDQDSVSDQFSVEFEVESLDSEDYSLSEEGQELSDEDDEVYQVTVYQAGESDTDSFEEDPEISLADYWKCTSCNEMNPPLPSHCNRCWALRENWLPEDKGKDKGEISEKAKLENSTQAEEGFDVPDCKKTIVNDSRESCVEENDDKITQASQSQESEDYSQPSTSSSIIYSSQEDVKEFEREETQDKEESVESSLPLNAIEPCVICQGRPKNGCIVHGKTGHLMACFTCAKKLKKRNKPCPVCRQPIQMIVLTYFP

As to `Cc1c(NS(=O)(=O)c2ccc(NC3CCCC3)c([N+](=O)[O-])c2)c(=O)n(-c2ccccc2)n1C`, in assay [1], the EC50 was > 167 µM (inactive).
Take `O=c1ccc2[n+]([O-])c3ccc(O)cc3oc-2c1`: the EC50 in assay [2] is > 300 µM (not active); in assay [6], 37.7 µM (active). The IC50 was 10.1 µM (not active) in assay [3], 1.61 µM (active) in [4] and 59.4 µM (active) in [8]. Besides, the CC50 in [5] is > 40 µM (active). For the same molecule, the concentration at half-maximal activity (AC50) in assay [7] is 0.285 µM (active).
Turning to `N#CC1=C(N)OC2=C(C(=O)CCC2)C1c1cc2c(cc1Br)OCO2` (stereo not given), the AC50 in assay [9] was > 52 µM (inactive). The EC50 in assay [2] and in assay [6] was > 300 µM (not active) each time.
`COc1cc(OC)cc(C(=O)NNC(=O)c2ccccc2Br)c1`: the IC50 in [10] is > 100 µM (active); in [11], > 50 µM (not active).
As to `Cc1ccc(NC(=O)Cn2cccc2)c(C)c1`, the results for the IC50 in [12] and in assay [13] were > 83.4 µM (inactive) and > 109 µM (inactive), respectively.
In the case of `COc1ccc(CCNC(=O)COC(=O)c2cnc(C)cn2)cc1OC`, the half-maximal effective concentration (EC50) in assay [14] is 0.17 µM (not active).
For `Cn1c(Cn2c(=O)sc3ccccc32)nnc1SCC(=O)NCc1ccc(F)cc1`, the cytotoxic concentration (CC50) in assay [15] was > 40 µM (active).
As for `CC(CNc1ccc(Cl)cc1)(CNc1ccc(Cl)cc1)[N+](=O)[O-]`, the AC50 in [16] was > 52 µM (inactive).
With `O=C1C(/C=N/c2ccccc2)=C(O)c2ccccc21`, the EC50 in assay [17] and in assay [18] was > 67.5 µM (inactive) in each case.
